Laboratory results: PMC3608532, “Characterization of a Single-Chain Variable Fragment Recognizing a Linear Epitope of Aβ: A Biotechnical Tool for Studies on Alzheimer’s Disease?” (PLoS ONE, 2013)

Experiments:
[1] = system: Aβ naturally secreted by 7PA2 cells; assay: Immunoprecipitation of cell culture derived Aβ; type: binding; details: scFv-IC16-NHS-Sepharose, Western blot with 4G8
Method: Purified scFv-IC16 was dialyzed against PBS and coupled to NHS-Sepharose (GE, Buckinghamshire, UK) according to the manufacturers recommendations. Conditioned medium (CM) was prepared from confluent wild type CHO cells or 7PA2 cells cultured in DMEM (Life Technologies, UK) in presence or absence of FCS. Aβ was immune-precipitated from cleared CM with scFv-IC16-NHS-Sepharose overnight at 4°C. After washing with PBS, captured proteins were separated by 10–20% tricine peptide PAGE (Biorad, Hercules, CA) and transferred onto a 0.2 µm nitrocellulose membrane at 400 mA for 2 h. The filter was boiled for 5 min in PBS [42] and blocked overnight at 4°C with 5% fat-free milk in PBS containing 0.05% Tween 20 (PBS-T). After washing in PBS-T, the membrane was probed with 1∶200 diluted monoclonal 4G8 (Signet, Dedhem, MA). Bound antibody was detected with horseradish peroxidase conjugated goat anti-mouse Ig (at 1∶25000) (Thermo Scientific, Bonn, Germany). Subsequently, the Amersham ECL Western Blotting Detection Reagent (GE, Buckinghamshire, UK) was applied for visualization.

Aβ(1-42) oligomers = assay: ELISA binding to Aβ(1-42) oligomers; design: species or system human; details: 250 ng/well, 10% N-biotinylated oligomers on streptavidin plate; compared with fibrils, p = 0.0014
Method: 1 mg of Aβ(1-42) or N-terminally/C-terminally biotinylated Aβ(1-42) was dissolved in 1 ml 1,1,1,3,3,3-hexafluorosiopropanol (HFIP) and incubated overnight at room temperature. Afterwards, Aβ(1-42) was mixed in the favored ratio with N-terminally/C-terminally biotinylated Aβ(1-42) and aliquoted. HFIP was evaporated using a SpeedVac (Concentrator 5301, Eppendorf, Germany) at room temperature for 30 min. To evaporate remaining HFIP, the sample was incubated overnight at room temperature with an open lid.
The preparation of Aβ(1-42) monomers and oligomers was carried out by size exclusion chromatography (SEC) as already described by Johansson et al with minor modifications. 250 µg of Aβ peptide was dissolved in 130 µl SEC buffer (50 mM NaPi, pH 7.4; 150 mM NaCl; 0.6% Tween-20) and briefly centrifuged (1 min, 16 100×g, room temperature) to remove insoluble fibrillar material. 100 µl of the supernatant was applied on a Superdex75 10/300 column (GE Healthcare, UK) connected to an Äkta purifier system (GE Healthcare, UK). The sample was eluted at a flow rate of 0.6 ml per min at room temperature and detected at wavelengths of 214, 250 and 278 nm. […] The concentration of the Aβ preparations was determined using the Micro BCA Protein Assay Kit (Thermo Scientific, Waltham, MA, USA). […] The samples were measured at a wavelength of 570 nm with a Polarstar Optima plate reader (BMG, Ortenberg, Germany). […]

For “scFv-IC16: single-chain variable fragment (VH-(Gly4Ser)3-VL, His6- and Myc-tag) derived from Aβ binding monoclonal antibody IC16, expressed in E. coli”, the “immunoprecipitation of monomeric Aβ” value ([1]; 7PA2 conditioned medium containing FCS, overnight 4°C) was “efficiently precipitated”, the “immunoprecipitation of lower oligomeric Aβ species” value ([1]; conditioned medium of 7PA2 cells cultured without FCS) was “efficiently precipitated” and the “ELISA binding to Aβ oligomers” value (Aβ(1-42) oligomers) was “weaker”.
